{
  "source": "patent US20160106439A1",
  "about": "“PNEUMATIC TOURNIQUET” (BIONUMERIK PHARMACEUTICALS, INC., priority 2013, published 2016)",
  "key": {"[1]": {"biological_target": "T1, Recombinant human ERCC1 (Homo sapiens, UniProt P07992)", "T1 construct": "6xHis (N); purchased Creative BioMart; host or cells: E. coli", "T1 sequence (P07992 whole entry, the tested form may be a part)": "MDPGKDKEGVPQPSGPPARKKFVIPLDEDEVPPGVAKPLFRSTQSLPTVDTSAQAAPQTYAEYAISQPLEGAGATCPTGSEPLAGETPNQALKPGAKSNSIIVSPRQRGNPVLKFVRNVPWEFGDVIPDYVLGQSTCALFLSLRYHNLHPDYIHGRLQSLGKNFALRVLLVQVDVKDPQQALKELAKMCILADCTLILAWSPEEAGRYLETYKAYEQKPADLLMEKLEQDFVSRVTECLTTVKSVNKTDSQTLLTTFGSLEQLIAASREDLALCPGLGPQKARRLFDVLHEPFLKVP", "assay": "Tavocept-derived mesna adducts on ERCC1 (trypsin digest, LC-MS)", "assay_type": "binding", "details": "20 mM Tavocept, LC-MS of tryptic fragments", "method": "Recombinant human ERCC1 (1 mg; 27.8 nanomoles, Creative BioMart) was reduced using a vast excess of dithiothreitol (DTT, 100 μL of a 500 mM stock) in ammonium bicarbonate (40 mM, pH 8.0) at 37° C. for 75 minutes (total reaction volume was 900 μL). […] Each 800 μL reaction was then chromatographed over a NAP10 column. This step removed unreacted Tavocept and was used for the buffer control simply to ensure that both samples received the same handling/manipulation during the course of the experiment. The elution volume from each NAP10 column was 1.2 mL. […] Trypsin digestion reactions were incubated for 1 hour at 30° C. and then for 17 hours at room temperature (23° C.). Following the Trypsin digest, the samples were lyophilized to dryness overnight and then resuspended in a volume of approximately 100 μL water and analyzed using LC-MS. A Symmetry C18 HPLC column (Waters, Franklin, Mass.; 3.5 μm; 4.6 mm×75 mm) and a Waters Alliance liquid chromatography system (Waters 2695, Franklin, Mass., USA) coupled to a Micromass single quadropole mass detector (Micromass ZMD, Manchester, UK) were used to analyze fragments from trypsin-digested human ERCC1. The mobile phase contained 0.1% of formic acid throughout the run and the flow rate was 0.35 mL/min. […]"}, "[2]": {"biological_target": "T2, TrxR/Trx system (Homo sapiens, UniProt P10599)", "T2 construct": "6xHis (N); purchased Sigma (Trx); American Diagnostica (bovine TrxR)", "T2 sequence (P10599 1-105)": "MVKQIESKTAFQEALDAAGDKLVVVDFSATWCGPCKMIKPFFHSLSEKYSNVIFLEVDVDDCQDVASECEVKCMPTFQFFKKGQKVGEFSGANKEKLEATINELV", "assay": "NADPH oxidation by TrxR and Trx", "assay_type": "biochemical", "details": "increasing concentrations of the substance"}, "[3]": {"biological_target": "T3, human glutaredoxin (Grx1) (Homo sapiens, UniProt P35754)", "T3 construct": "6xHis (TEV-cleavable) (N, cleaved yes); made in house; host or cells: E. coli BL21 (RIPL)", "T3 sequence (P35754 whole entry)": "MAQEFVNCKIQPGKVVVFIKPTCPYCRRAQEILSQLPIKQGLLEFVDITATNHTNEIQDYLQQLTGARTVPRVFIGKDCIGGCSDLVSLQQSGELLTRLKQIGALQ", "assay": "X-ray crystallography of Grx1 with Tavocept-derived mesna adducts", "assay_type": "binding", "details": "40 mM Tavocept", "excerpt": "Diffraction data were collected at the Advanced Light Source (ALS) (Berkeley, Calif.). […] Data was processed using the program package MosFlm as part of the ccp4 program package.\nData was indexed, integrated, scaled and merged using the program Mosflm. […] The solution was consistent with one molecule in the crystal asymmetric unit. […] The structure solution is supported by contiguous electron density for the entire chain trace of each molecule, landmark side chain density features matching the amino acid sequence including cysteines, absence of phi-psi violations and final R/Rfree values in the normal range. […] Residues Gln39 and Glu55 have missing side-chain atoms in the final structures (side chain atoms CD, CG, OE1, NE2 and CD, OE1, OE2, respectively)."}, "[4]": {"biological_target": "T4, Peroxiredoxin (Prx) (Homo sapiens, UniProt Q06830)", "T4 construct": "purchased SigmaAldrich", "T4 sequence (Q06830 whole entry)": "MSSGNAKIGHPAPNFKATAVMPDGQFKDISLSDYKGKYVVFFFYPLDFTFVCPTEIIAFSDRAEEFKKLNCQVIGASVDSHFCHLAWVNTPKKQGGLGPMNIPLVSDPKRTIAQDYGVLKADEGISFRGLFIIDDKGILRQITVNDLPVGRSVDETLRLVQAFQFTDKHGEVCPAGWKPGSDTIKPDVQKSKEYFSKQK", "assay": "Peroxiredoxin activity (summary Table 27)", "assay_type": "biochemical", "details": "disrupts active site structure"}, "[5]": {"details": "cited from earlier work"}, "[6]": {"biological_target": "T5, Recombinant human Trx (Homo sapiens, UniProt P10599)", "T5 sequence (P10599 1-105)": "T2 sequence (P10599 1-105)", "assay": "LC MS of Trypsin digested Trx after incubation with Tavocept, mesna or glutathione", "assay_type": "binding", "design": "purchased Sigma (SigmaAldrich); host or cells: E. coli", "details": "10 mM, 4 to 6 hours"}},
  "note": "Where “and” joins values, the source holds several entries; their conditions need not be identical. Equal values may be shown once. Entries after “also recorded” stand apart in the source; their conditions may differ. Read-outs that look alike come from different tables or passages of the source.",
  "data": [
    {"smiles": "O=S(=O)([O-])CCSSCCS(=O)(=O)[O-].[Na+].[Na+]", "note": "[Tavocept, disodium 2,2′-dithio-bis-ethane sulfonate]", "values": [
      {"measurement": "ERCC1 cysteine xenobiotically modified", "setting": "[1]", "value": "Cys238; also recorded: Cys274"},
      {"measurement": "NADPH oxidation by TrxR and Trx", "setting": "[2]", "value": "increases"},
      {"measurement": "Tavocept-derived mesna adduct sites on Grx", "setting": "[3]", "value": "observed on Cys7 and Cys82"},
      {"measurement": "Effect on Prx", "setting": "[4]", "value": "resulting in impaired enzyme activity"},
      {"measurement": "Tavocept in plasma", "setting": "[5]; 41 g/m^2 Tavocept", "value": "~14", "unit": "mM"},
      {"measurement": "concentrations achieved in the clinic", "setting": "[5]; as high as", "value": "≤ 18000", "unit": "µM"},
      {"measurement": "plasma levels pharmacologically achievable", "setting": "[5]; doses of 18.4 g/m^2 and higher", "value": "≥ 8", "unit": "mM"},
      {"measurement": "pharmacologically achievable concentrations", "setting": "[5]; in vivo", "value": "6-10 mM"},
      {"measurement": "plasma concentrations achieved in clinical trials", "setting": "[5]; in vivo", "value": 10000, "unit": "µM"},
      {"measurement": "Cmax", "setting": "[5]; read-out: Cmax values in plasma, typical, doses as high as 41 g/m^2", "value": 10000, "unit": "µM"},
      {"measurement": "Cmax", "setting": "[5]; read-out: Cmax values in plasma, dose of 18.4 g/m^2", "value": "≥ 10000 µM and 10000 µM"},
      {"measurement": "Cmax", "setting": "[5]; read-out: typical Cmax values, administered at 18 g/m^2", "value": 10000, "unit": "µM"},
      {"measurement": "Mesna-Cysteine Adduct Detected?", "setting": "[6]; fragment CMPTFQFFK (cys73)", "value": "Yes"},
      {"measurement": "Mesna-Cysteine Adduct Detected?", "setting": "[6]; fragment LVVVDFSATWCGPCK (active site cys32 and cys35)", "value": "No"},
      {"measurement": "Mesna-Cysteine Adduct Detected?", "setting": "[6]; fragment YSNVIFLEVDVDDCQDVASECEVK (cys62 and cys69)", "value": "Yes"}
    ]}
  ]
}
